Data reported in paper PMC11219871, “Epigenetic-based differentiation therapy for Acute Myeloid Leukemia” (Nature Communications, 2024).
Where “and” joins values, the source holds several entries; their conditions need not be identical. Equal entries are not always repeated.

Columns and labels:
ML-2 = assay: Proteome analysis (LC-MS/MS); assay type: cell-based, human; conditions: ML-2, 25% GI50, 12 h
Procedure: After cooling down, lysates were incubated at 25 °C with 10 units of DNAse (Benzonase, Merk) and sonicated for 15 min in a Bioruptor for DNA shearing. Protein concentration was determined using microBCA, using BSA as standard. […] LysC, Wako). […] Peptides (500 μg) were labeled with Thermo Scientific […] Isobaric reagents for 1 h at 25 C. […] The final mixture was desalted using a 500 mg Sep-Pak C18t cartridge (Waters) and dried prior to high pH reverse phase HPLC pre-fractionation. Labeled peptides were fractionated offline through a high pH reverse phase chromatography using an Ultimate 3000 HPLC system equipped with a sample collector. Briefly, peptides were dissolved in 1200 μL of Buffer A (10 mM NH4OH) and loaded onto a XBridge BEH130 C18 column (3.5 μm, 250 mm length and 3.5 mm ID, Waters). […] One-minute fractions (500 μL) from minute 15 to 65 were collected and neutralized with 10% formic acid. […] Pooled fractions were snap-frozen and lyophilized. LC-MS/MS was done by coupling an UltiMate 3000 RSLCnano LC system to an Orbitrap Exploris 480 mass spectrometer (Thermo Fisher Scientific). […] The mass spectrometer was operated in a data-dependent mode, with an automatic switch between MS and MS/MS scans using a top 15 method. (Intensity threshold ≥ 1e4, dynamic exclusion of 20 sec and excluding charges unassigned, +1 and ≥ +7). MS spectra were acquired from 350 to 1500 m/z with a resolution of 60,000 FMHW (200 m/z). Ion peptides were isolated using a 0.7 Th window and fragmented using higher-energy collisional dissociation (HCD) with a normalized collision energy NCE of 36. MS/MS spectra were acquired with a fixed first mass of 120 m/z and a resolution of 45,000 FMHW (200 m/z). […] For total protein analysis, raw files were processed with MaxQuant (v 2.4.9.0) using the standard settings against the same protein database. […] Briefly, proteins/sites with less than eighteen valid values were filtered out. Then, a global normalization of log2-transformed intensities across samples was performed using the LOESS function. Differential analysis was done using the empirical Bayes statistics Limma. […] The FDR was estimated to be below 2% by Benjamini-Hochberg.

HEL = assay: Differentiation assay, CD11b / annexin-V flow cytometry; assay type: cell-based; conditions: HEL cell line; replicates 1-3 (Figure 2A)
Procedure: (§1) Next, the cells were washed twice with phosphate-buffered saline (PBS) and resuspended in 1X Binding Buffer at a concentration of 1 × 10^6 cells/mL. An 8-µL aliquot of APC-CD11b (BD Pharmingen, Franklin Lakes, NJ, USA) and 1 µL of FITC annexin-V (AV) (BD Pharmingen, Franklin Lakes, NJ, USA) antibodies were added and incubated for 15 min at room temperature in the dark. Finally, after the addition of 400 µL of 1X Binding Buffer to each tube, samples were collected on a BD FACSCanto flow cytometer (Becton Dickinson, San Jose, CA, USA) and analyzed using FlowJo software.

OCI-AML2 = assay: as above; assay type: cell-based; conditions: OCI-AML-2 cell line; replicates 1-3 (Figure 2A)
Procedure: as §1

MONO-MAC-6 = assay: as above; assay type: cell-based; conditions: MONOMAC-6 cell line; replicates 1-3 (Figure 2A)
Procedure: as §1

TF-1 = assay: as above; assay type: cell-based; conditions: TF-1 cell line; replicates 1-3 (Figure 2A);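 also: daily treatment at a GI50-based fraction of each compound's GI50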
Procedure: as §1

THP-1 = assay: as above; assay type: cell-based; conditions: THP-1 cell line; replicates 1-3 (Figure 2A)
Procedure: as §1

M-O7e = assay: as above; assay type: cell-based; conditions: MO7e cell line; replicates 1-3 (Figure 2A);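 also: daily treatment at a GI50-based fraction of each compound's GI50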
Procedure: as §1

KASUMI-1 = assay: as above; assay type: cell-based; conditions: KASUMI-1 cell line; replicates 1-3 (Figure 2A);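 also: daily treatment at a GI50-based fraction of each compound's GI50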
Procedure: as §1

NB-4 = assay: as above; assay type: cell-based; conditions: for CD11b (%): NB4 cell line, replicates 1-3 (Figure 2A)
Procedure: as §1

UT-7 = assay: as above; assay type: cell-based; conditions: UT7 cell line; replicates 1-3 (Figure 2A)
Procedure: as §1

GF-D8 = assay: as above; assay type: cell-based; conditions: GF-D8 cell line; replicates 1-3 (Figure 2A);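 also: daily treatment at a GI50-based fraction of each compound's GI50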
Procedure: as §1

OCI-AML3 = assay: as above; assay type: cell-based; conditions: OCI-AML-3 cell line; replicates 1-3 (Figure 2A)
Procedure: as §1

[1] = tested on: primary AML patient samples; assay: Differentiation assay, CD11b flow cytometry in primary samples; assay type: cell-based, human; conditions: for CD11b-positive cells (%): daily 48 h
Procedure: as §1
Peripheral blood (PB) specimens were obtained from preliminarily diagnosed AML patients who had not received any treatment before specimens were collected. All patients gave informed consent for their participation in this study, which was approved by the Clinical Research Ethics Committee of Clínica Universidad de Navarra. Written informed consent was obtained from each participant. PB was mixed with an ammonium chloride-potassium (ACK) buffer lysis (0.15 mol/L NH4Cl, 10 mmol/L KHCO3, 0.1 mmol/L ethylenediaminetetraacetic acid, pH 7.2) at a 1:2 volume ratio by gentle inversion, incubated for 10 min and centrifuged at 200 g for 10 min. The cell pellet was washed twice with PBS and finally resuspended in EGM2 medium (Cambrex Bioscience, Walkersville, MD). EGM2 contains 2% fetal calf serum, hydrocortisone, heparin, antibiotics, epidermal growth factor, human fibroblast growth factor, insulin-like growth factor, vascular endothelial growth factor, and ascorbic acid. The cells were plated at 1 × 10^6 cells/mL and treated daily with 200 and 500 nM of CM-444 and CM-1758 for 48 h. Next, the differentiation assay was performed as described above.

[2] = primary AML patient sample 1 (Figure 2C)
[3] = primary AML patient sample 2 (Figure 2C)
[4] = primary AML patient sample 3 (Figure 2C)
[5] = primary AML patient sample 4 (Figure 2C)
[6] = primary AML patient sample 5 (Figure 2C)
[7] = primary AML patient sample 6 (Figure 2C)
[8] = primary AML patient sample 7 (Figure 2C)
[9] = primary AML patient sample 8 (Figure 2C)

Row | SMILES | proteins significantly regulated, of 8342 quantified (ML-2) [%] | CD11b (%) (HEL) | CD11b (%) (OCI-AML2) | CD11b (%) (MONO-MAC-6) | CD11b (%) (TF-1) | CD11b (%) (THP-1) | CD11b (%) (M-O7e) | CD11b (%) (KASUMI-1) | CD11b (%) (NB-4) | CD11b (%) (UT-7) | CD11b (%) (GF-D8) | CD11b (%) (OCI-AML3) | CD11b (%) [1, 2] [%] | CD11b (%) [1, 3] [%] | CD11b (%) [1, 4] [%] | CD11b (%) [1, 5] [%] | CD11b (%) [1, 6] [%] | CD11b (%) [1, 7] [%] | CD11b (%) [1, 8] [%] | CD11b (%) [1, 9] [%] | also measured
1 | O=C(CCCCCCC(=O)Nc1ccccc1)NO [Vorinostat, reference compound] | 2.7 | – | – | – | – | – | – | – | – | – | – | – | – | – | – | – | – | – | – | – | –
2 | COc1cc2nc(-c3ccc(C)o3)cc(NCC3CCN(c4ncc(C(=O)NO)cn4)CC3)c2cc1OC [CM-444, 2-[4-[[[6,7-dimethoxy-2-(5-methyl-2-furyl)-4-quinolyl]amino]methyl]-1-piperidyl]pyrimidine-5-carbohydroxamic acid] | 9.5 | 12.7% and 10.5% and 8.2% | 21.1% and 24.6% and 20.5% | 69.4% and 75.8% and 60.6% | 85.3% and 79.1% and 71.7% | 99.1% and 93.5% and 92.1% | 5.2% and 11.2% and 10.9% | 16.9% and 10.6% and 19.6% | 46.5% and 38.3% and 33.9% | 16.8% and 20.4% and 21.0% | 26.5% and 25.8% and 22.1% | 36.4% and 23.4% and 30.8% | 46.62 | 31.74 | 20.47 | 39.54 | 32.14 | 38.57 | 49.19 | 23.69 | CD11b-positive cells (%) ([1]; sample AML-1, 200 nM): 35.2%; CD11b-positive cells (%) ([1]; sample AML-1, 500 nM): 46.6%; CD11b-positive cells (%) ([1]; sample AML-2, 200 nM): 16.8%; CD11b-positive cells (%) ([1]; sample AML-2, 500 nM): 31.7%; CD11b-positive cells (%) ([1]; sample AML-3, 200 nM): 12.3%; CD11b-positive cells (%) ([1]; sample AML-3, 500 nM): 20.5%; CD11b-positive cells (%) ([1]; sample AML-4, 200 nM): 20.8%; CD11b-positive cells (%) ([1]; sample AML-4, 500 nM): 39.5%; CD11b-positive cells (%) ([1]; sample AML-5, 200 nM): 20.2%; CD11b-positive cells (%) ([1]; sample AML-5, 500 nM): 32.1%; CD11b-positive cells (%) ([1]; sample AML-6, 200 nM): 29.7%; CD11b-positive cells (%) ([1]; sample AML-6, 500 nM): 38.6%; CD11b-positive cells (%) ([1]; sample AML-7, 200 nM): 32.9%; CD11b-positive cells (%) ([1]; sample AML-7, 500 nM): 49.2%; CD11b-positive cells (%) ([1]; sample AML-8, 200 nM): 15.3%; CD11b-positive cells (%) ([1]; sample AML-8, 500 nM): 23.7%
3 | Cc1[nH]c2ccccc2c1CCNCc1ccc(/C=C/C(=O)NO)cc1 [Panobinostat, reference compound] | 5.8 | – | – | – | – | – | – | – | – | – | – | – | – | – | – | – | – | – | – | – | –
4 | COc1cc2nc(-c3cc(C)oc3C)cc(NCC3CCN(c4ncc(C(=O)NO)cn4)CC3)c2cc1OC [CM-1758, 2-[4-[[[2-(2,5-dimethyl-3-furyl)-6,7-dimethoxy-4-quinolyl]amino]methyl] -1-piperidyl]pyrimidine-5-carbohydroxamic acid] | 8.8 | 14.82% and 10.2% and 20.4% | 39.01% and 39.3% and 37.1% | 61.3% and 69.1% and 60.1% | 72.3% (2×) and 76.2% | 90.5% and 96.2% and 93.2% | 17.02% and 15.8% and 12.9% | 24.2% and 19.4% and 12.5% | 41.82% and 48.2% and 36.4% | 21.8% and 25.6% and 23.1% | 27.3% and 20% and 28.6% | 51.4% and 49.5% and 45.2% | 43.21 | 30.14 | 23.69 | 38.45 | 30.14 | 35.24 | 35.47 | 25.49 | CD11b-positive cells (%) ([1]; sample AML-1, 200 nM): 30.6%; CD11b-positive cells (%) ([1]; sample AML-1, 500 nM): 43.2%; CD11b-positive cells (%) ([1]; sample AML-2, 200 nM): 15.2%; CD11b-positive cells (%) ([1]; sample AML-2, 500 nM): 30.1%; CD11b-positive cells (%) ([1]; sample AML-3, 200 nM): 15.5%; CD11b-positive cells (%) ([1]; sample AML-3, 500 nM): 23.7%; CD11b-positive cells (%) ([1]; sample AML-4, 200 nM): 21.9%; CD11b-positive cells (%) ([1]; sample AML-4, 500 nM): 38.4%; CD11b-positive cells (%) ([1]; sample AML-5, 200 nM): 19.2%; CD11b-positive cells (%) ([1]; sample AML-5, 500 nM): 30.1%; CD11b-positive cells (%) ([1]; sample AML-6, 200 nM): 27.2%; CD11b-positive cells (%) ([1]; sample AML-6, 500 nM): 35.2%; CD11b-positive cells (%) ([1]; sample AML-7, 200 nM): 30.1%; CD11b-positive cells (%) ([1]; sample AML-7, 500 nM): 35.5%; CD11b-positive cells (%) ([1]; sample AML-8, 200 nM): 16.2%; CD11b-positive cells (%) ([1]; sample AML-8, 500 nM): 25.5%
5 | CC1=C(/C=C/C(C)=C/C=C/C(C)=C/C(=O)O)C(C)(C)CCC1 [ATRA, all-trans retinoic acid, reference compound] | – | 1.5% and 0.9% and 3.54% | 15.2% and 20.2% and 14.1% | 10.8% and 15.4% and 11.3% | 36.7% and 30.4% and 33.4% | 48.6% and 40.2% and 38.7% | 0.25% and 2.3% and 4.5% | 1.2% and 9.5% and 4.6% | 89.2% and 76.4% and 74.85% | 5.9% and 6.4% and 10.05% | 5.2% and 12.5% and 12.9% | 19.3% and 12.4% and 11.8% | 26.1 | 17.45 | 10.26 | 25.36 | 15.2 | 16.3 | 29.3 | 13.25 | differentiation (CD11b) (NB-4; NB-4, daily 25% GI50, 48 h): induced differentiation; CD11b-positive cells (%) ([1]; sample AML-1, 2 µM): 26.1%; CD11b-positive cells (%) ([1]; sample AML-2, 2 µM): 17.5%; CD11b-positive cells (%) ([1]; sample AML-3, 2 µM): 10.3%; CD11b-positive cells (%) ([1]; sample AML-4, 2 µM): 25.4%; CD11b-positive cells (%) ([1]; sample AML-5, 2 µM): 15.2%; CD11b-positive cells (%) ([1]; sample AML-6, 2 µM): 16.3%; CD11b-positive cells (%) ([1]; sample AML-7, 2 µM): 29.3%; CD11b-positive cells (%) ([1]; sample AML-8, 2 µM): 13.3%
